Measurements as given in patent US20230218589A1, “COMPOUND FOR PREVENTION OR TREATMENT OF A SKIN CANCER OR SKIN PRECANCER” (UNIQUEST PTY LTD, priority 2020, published 2023).

Key:
[1] = test system: HPV38-E6/E7 SCC cells; assay: Mouse back cSCC tumour model, tacrolimus diet, intra-tumoural injection; conditions: in vivo
[2] = Single dose pharmacokinetics after topical application to mouse ear; format: in vivo; conditions: single topical 10 μL of 3% solution in propylene glycol to ear, LOQ 3.5 ng/mL
Description: The single dose pharmacokinetics of Compound 1 (Cmpd 1) was assessed by topical administration of the compound as a formulation in propylene glycol (3% concentration) applied once per day (QD) to one ear only of C57BL/6 female mice, 8 weeks of age (N=2 or 3 per timepoint; samples taken 1, 6 and 24 h post administration of Compound 1).
Compound Application: Compound 1 (10 μL of a 3% solution in propylene glycol) was applied to mouse ears using a silicone brush. The brush was cleaned with distilled water and ethanol between applications. The vehicle solution was 100% propylene glycol.
Blood processing: Cryovials were prepared containing 10 μL 0.5 M EDTA and labelled appropriately. Cardiac bleed was performed on mice and blood transferred to an Eppendorf tube. Blood (110 μL) was transferred immediately to a cryovial containing EDTA and well mixed to prevent clotting. The cryovial was placed on dry ice and transferred to a −80° C. freezer.
Ear processing: Before taking ears for pharmacokinetics the skin was cleaned with distilled water and dried with cotton balls/swab before doing 2 tape strips (one piece of tape per strip). The whole ear was removed from the mouse. The weight of the whole ear was recorded and placed into an appropriate cryovial which was placed on dry ice then transferred to a −80° C. freezer.
Sample processing: A LC/MS/MS based bioanalytical method was developed for the detection and quantification of Compound 1 in mouse blood and ears. Calibration standards and quality control samples were prepared by adding 2.5 μL of stock solutions of test compound of different concentrations into 25 μL of naïve mouse blood or ear homogenates. Control samples were prepared by spiking 2.5 μL, of water or acetonitrile into 25 μL of naïve mouse blood or ear homogenates. The blood or ear samples were transferred into polypropylene Eppendorf tubes. […] 20-40 μL of the supernatant was analysed by LCMS/MS, using the same instrument, column, Mobile phase A, Mobile phase B, gradient and other parameters as outlined above for the tumour sample processing.

[3] = test system: 5117-RE (spindle cell sarcoma) cells; assay: Mouse back 5117-RE tumour model (spindle cell sarcoma, Kaposi sarcoma model); format: in vivo
Description: Tacrolimus diet: All customised mice diet was manufactured by Specialty Feeds (Perth, Wash.). Briefly, tacrolimus (MedChemExpress) was mixed with caster sugar and then incorporated into standard mouse diet. […] Food colouring was added to distinguish the drug. During the manufacturing process the pellets were air-dried overnight rather than dried in an oven in order to minimise the amount of heat applied. The final product was sealed in airtight bags and stored at 4° C. protected from light to ensure minimal degradation. Pellet volumes in feed hoppers were kept to a minimum and restocked every 3-4 days for the duration of the experiments.
Compound 1 preparation: Compound 1 (Cmpd 1) was prepared at the beginning of each dosing week as a 1 or 2 mg/mL solution as required in 4% ethanol/0.2% Tween-80/PBS. Compound 1 solution was stored at 4° C. for up to one week.
Mouse back 5117-RE tumour model: Method as per the above section (Mouse back cSCC tumour model), with the following changes; BALBc mice were used, and 5117-RE cells were cultured and passaged for 1 week prior to tumour cell injection in RPMI media (Gibco) supplemented with 10% heat inactivated FBS (Gibco) and 1× Penicillin/Streptomycin/Glutamine (Gibco).
Dissociation of tumour cells for FACS analysis: To release cells from tumours, harvested tissue was cut into small fragments and digested for 60 min at 37° C. in RPMI media containing 2% FBS, 3 mg/mL collagenase D and 5 ug/mL DNase I. Tissues were then gently pressed through a 70 μm cell strainer to create a single-cell suspension. […]
FACS analysis: Stained tumour dissociated cells were then washed twice, resuspended in FACS buffer and Flow cytometric analysis was performed using LSR Fortessa X20 (BD Biosciences) flow cytometers with FACSDiva. software (Becton Dickinson, Sparks, Md., USA). Data were exported and analyzed using FlowJo software (I'reestar Inc., Ashland, Oreg., USA).
Mice were injected sub-cutaneously with 1×10^6 5117-RE (spindle cell sarcoma) cells into the lower back and tumour size was monitored 3 times a week throughout the experiment. […]

In the case of CC[C@@H]1/C=C(\C)[C@@H](O)[C@H](C)C[C@H](OC)[C@H]2O[C@@](O)(C(=O)C(=O)N3CCCC[C@H]3C(=O)O[C@H](/C(C)=C/[C@@H]3CC[C@@H](O)[C@H](OC)C3)[C@H](C)[C@@H](O)CC1=O)[C@H](C)C[C@@H]2OC [Compound 1, 17-Ethyl-1,14,20-trihydroxy-12-[2′-(4″-hydroxy-3″-methoxycyclohexyl)-1′-methylvinyl]-23,25-dimethoxy-13,19,21,27-tetramethyl-11,28-dioxa-4-azatricyclo-[22.3.1.0^4,9]octacos-18-ene-2,3,10,16-tetraone], the “percentage of CD69+ (activated) CD8 T cells isolated from the tumour” value [1] is reported as “significantly increased”, the “percentage of IFN gamma+ CD8 T cells isolated from the tumour” value [1] is reported as “significantly increased” and the “percentage of TNF alpha+ CD8 T cells isolated from the tumour” value [1] is reported as “significantly increased”. For the same molecule, the “tacrolimus dependent-tumour growth compared to the vehicle control” value [1] was “significantly reduced”, the “tacrolimus dependent-tumour growth compared to the vehicle control, without CD8 depletion” value [1] was “significantly reduced” and the “tumour regression after CD8 depletion” value [1] was “no longer able cause tumour regression”. For the same molecule, the Concentration in blood ([2]; 1 h) was “BLQ”, the Concentration in blood ([2]; 6 h) was “BLQ” and the Concentration in blood ([2]; 24 h) was “BLQ”. The “tacrolimus dependent-tumour growth compared to the vehicle control” value ([3]; BALBc mice, BID IT 40 μL of 2 mg/mL, after 10 days treatment, tacrolimus 150 ppm diet) was “significantly reduced”, the “percentage of TNF alpha+ CD8 T cells isolated from the tumour” value ([3]; after 13 days treatment) was “significantly increased” and the “percentage of IFN gamma+ CD8 T cells isolated from the tumour” value ([3]; after 13 days treatment, ex vivo stimulation with CD3/CD28) was “significantly increased”.
